Results published in PubChem BioAssay AID2060496 (Molecular Pharmacology Branch, DTP, NCI, 2025).

System: 276233-004-R-J1-PDC complex spheroid viability
Test: Anticancer human tumor 276233-004-R-J1-PDC patient-derived colon adenocarcinoma cell line growth inhibition [GQUAD]
Conditions: for IC50: curve of first compound; for viability, T/C: stronger effect = lower value; active = viability on the fitted dose curve at most 10% of control; inactive = the rest
In short: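 Viability of tumor cells grown as complex spheroids with endothelial and stromal cells, exposed to drug combinations. Top concentration at or near clinical Cmax (else 10 microM), diluted in half-log increments.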

[1] = second compound 0.0316 µM, first compound 0.0316 µM
[2] = second compound 0.0316 µM, first compound 0.1 µM
[3] = second compound 0.0316 µM, first compound 0.316 µM
[4] = second compound 0.0316 µM, first compound 1 µM
[5] = second compound 0.0316 µM, first compound 3.16 µM
[6] = second compound 0.0316 µM, first compound 10 µM
[7] = second compound 0.1 µM, first compound 0.0316 µM
[8] = second compound 0.1 µM, first compound 0.1 µM
[9] = second compound 0.1 µM, first compound 0.316 µM
[10] = second compound 0.1 µM, first compound 1 µM
[11] = second compound 0.1 µM, first compound 3.16 µM
[12] = second compound 0.1 µM, first compound 10 µM
[13] = second compound 0.316 µM, first compound 0.0316 µM
[14] = second compound 0.316 µM, first compound 0.1 µM
[15] = second compound 0.316 µM, first compound 0.316 µM
[16] = second compound 0.316 µM, first compound 1 µM
[17] = second compound 0.316 µM, first compound 3.16 µM
[18] = second compound 0.316 µM, first compound 10 µM
[19] = second compound 1 µM, first compound 0.0316 µM
[20] = second compound 1 µM, first compound 0.1 µM
[21] = second compound 1 µM, first compound 0.316 µM
[22] = second compound 1 µM, first compound 1 µM
[23] = second compound 1 µM, first compound 3.16 µM
[24] = second compound 1 µM, first compound 10 µM
[25] = second compound 3.16 µM, first compound 0.0316 µM
[26] = second compound 3.16 µM, first compound 0.1 µM
[27] = second compound 3.16 µM, first compound 0.316 µM
[28] = second compound 3.16 µM, first compound 1 µM
[29] = second compound 3.16 µM, first compound 3.16 µM
[30] = second compound 3.16 µM, first compound 10 µM
[31] = second compound 10 µM, first compound 0.0316 µM
[32] = second compound 10 µM, first compound 0.1 µM
[33] = second compound 10 µM, first compound 0.316 µM
[34] = second compound 10 µM, first compound 1 µM
[35] = second compound 10 µM, first compound 3.16 µM
[36] = second compound 10 µM, first compound 10 µM
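Note: spheroids exposed to drugs for seven days.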
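Throughout, for viability, T/C: 100% = DMSO vehicle control viability.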

CC1COCCN1c1cc(C2(O)CC3CCC(C2)O3)c2cnn(-c3ccn[nH]3)c2n1 (stereo unspecified) + Cc1[nH]c2ccc(F)cc2c1-c1nc2c3cccnc3c3ncccc3c2[nH]1
3.11 µM: IC50 (second compound 0.1 µM)
< 0.0316 µM: IC50 (second compound 10 µM)
> 10 µM: IC50 (second compound 0.0316 µM)
2.61 µM: IC50 (second compound 0.316 µM)
0.0712 µM: IC50 (second compound 3.16 µM)
0.665 µM: IC50 (second compound 1 µM)
inactive: viability, T/C [1] 91% | viability, T/C [2] 68% | viability, T/C [3] 79% | viability, T/C [4] 72.5% | viability, T/C [5] 55.6% | viability, T/C [6] 51% | viability, T/C [7] 74.6% | viability, T/C [8] 87% | viability, T/C [9] 74.8% | viability, T/C [10] 60.4% | viability, T/C [11] 52.8% | viability, T/C [12] 44.5% | viability, T/C [13] 87.2% | viability, T/C [14] 76.1% | viability, T/C [15] 57.4% | viability, T/C [16] 62.7% | viability, T/C [17] 54% | viability, T/C [18] 36% | viability, T/C [19] 60.4% | viability, T/C [20] 70% | viability, T/C [21] 65.6% | viability, T/C [22] 41.7% | viability, T/C [23] 39.6% | viability, T/C [24] 27.9% | viability, T/C [25] 51.4% | viability, T/C [26] 50.9% | viability, T/C [27] 43.2% | viability, T/C [28] 36% | viability, T/C [29] 33.2% | viability, T/C [30] 26.2% | viability, T/C [31] 46.3% | viability, T/C [32] 44.3% | viability, T/C [33] 42.5% | viability, T/C [34] 35.9% | viability, T/C [35] 26.7% | viability, T/C [36] 21.6%

CC1COCCN1c1cc(C2(S(C)(=N)=O)CC2)nc(-c2ccnc3[nH]ccc23)n1 (stereo unspecified) + Cc1[nH]c2ccc(F)cc2c1-c1nc2c3cccnc3c3ncccc3c2[nH]1
7.86 µM: IC50 (second compound 3.16 µM)
0.424 µM: IC50 (second compound 10 µM)
> 10 µM: IC50 (second compound 0.0316 µM) | IC50 (second compound 0.1 µM) | IC50 (second compound 0.316 µM) | IC50 (second compound 1 µM)
inactive: viability, T/C [1] 96.4% | viability, T/C [2] 83% | viability, T/C [3] 110% | viability, T/C [4] 89.6% | viability, T/C [5] 87.1% | viability, T/C [6] 67.3% | viability, T/C [7] 76.6% | viability, T/C [8] 101% | viability, T/C [9] 85.8% | viability, T/C [10] 90.1% | viability, T/C [11] 75% | viability, T/C [12] 74.1% | viability, T/C [13] 97.3% | viability, T/C [14] 79.8% | viability, T/C [15] 97.7% | viability, T/C [16] 70.1% | viability, T/C [17] 74.6% | viability, T/C [18] 63.6% | viability, T/C [19] 80.3% | viability, T/C [20] 79% | viability, T/C [21] 85.4% | viability, T/C [22] 76.1% | viability, T/C [23] 64.3% | viability, T/C [24] 57.4% | viability, T/C [25] 56.2% | viability, T/C [26] 58.6% | viability, T/C [27] 55.9% | viability, T/C [28] 50.1% | viability, T/C [29] 53.6% | viability, T/C [30] 48.7% | viability, T/C [31] 47.9% | viability, T/C [32] 49.5% | viability, T/C [33] 47.5% | viability, T/C [34] 58.2% | viability, T/C [35] 44% | viability, T/C [36] 36.3%

O=C(c1cc(Cc2n[nH]c(=O)c3ccccc23)ccc1F)N1CCN(C(=O)C2CC2)CC1 + Cc1[nH]c2ccc(F)cc2c1-c1nc2c3cccnc3c3ncccc3c2[nH]1
inactive: viability, T/C [1] 108% | viability, T/C [2] 95.4% | viability, T/C [3] 92.5% | viability, T/C [4] 73.3% | viability, T/C [5] 95.1% | viability, T/C [6] 83.4% | viability, T/C [7] 83.6% | viability, T/C [8] 90.4% | viability, T/C [9] 92% | viability, T/C [10] 90.4% | viability, T/C [11] 91.6% | viability, T/C [12] 101% | viability, T/C [13] 75.4% | viability, T/C [14] 86.2% | viability, T/C [15] 85% | viability, T/C [16] 91.1% | viability, T/C [17] 85.9% | viability, T/C [18] 81.4% | viability, T/C [19] 69% | viability, T/C [20] 79.5% | viability, T/C [21] 77.4% | viability, T/C [22] 69.7% | viability, T/C [23] 64.4% | viability, T/C [24] 83.2% | viability, T/C [25] 51.5% | viability, T/C [26] 64.2% | viability, T/C [27] 55.7% | viability, T/C [28] 55% | viability, T/C [29] 56.3% | viability, T/C [30] 59.6% | viability, T/C [31] 48.8% | viability, T/C [32] 50.9% | viability, T/C [33] 44.7% | viability, T/C [34] 50.3% | viability, T/C [35] 55% | viability, T/C [36] 51%
< 0.0316 µM: IC50 (second compound 10 µM)
> 10 µM: IC50 (second compound 0.0316 µM) | IC50 (second compound 0.1 µM) | IC50 (second compound 0.316 µM) | IC50 (second compound 1 µM) | IC50 (second compound 3.16 µM)
